According to patent EP0911330B1, “1-(4-Arylpiperazine-1-y1)-3-(2-oxopyrrolidin/piperidin-1-y1) propanes as therapeutic agents for hypertension, ischemia, cardiovascular and other adrenergic receptors related disorders” (Council of Scientific & Industrial Research, priority 1997, dated 1999):

Key:
[1] = Acute toxicity (LD50); details: mouse, in vivo, Mice
[2] = test system: Naturally occuring hypertensive cat; experiment: Effect on blood pressure, heart rate and adrenaline vasopressor response, anaesthetized naturally hypertensive cat; format: in vivo
Experimental: (§1) 2. Effect on blood pressure, heart rate and adrenaline vasopressor response of anaesthetized (pentobarbitone sodium 40 & 60 mg/kg i.p. in cat and rat respectively) normotensive & hypertensive rat & cat model preparations.
(§2) • (a) Cats (2.6-4.0 kg) of either sex anaesthetized with pentobarbitone sodium (40 mg/kg i.v.) and showing basal mean arterial blood pressure below 150 mm (Hg) were categorised as normotensive and above 150 mm Hg as hypertensive. Arterial blood pressure (BP) was recorded from one of the carotid artery through a stathum P23 DC pressure transducer and 7P1 low level DC preamplifier on a Grass Model P7 Polygraph, Signals from 7P1 preamplifier were used to trigger 7P4 Tachograph preamplifier for recording the heart rate (HR). Right femoral vein and Trachea were cannulated for intravenous injections and artificial ventilation respectively. Control responses to intravenous injection of noradrenaline (2-4 ug); acetyl choline (1-2 ug); histamine ([…]) and isoprenaline (1-2 ug) were taken before and after the administration of test doses of each compounds.

[3] = test system: Normotensive cat; experiment: Effect on blood pressure, heart rate and adrenaline vasopressor response, anaesthetized normotensive cat; format: in vivo
Experimental: as §1, §2

[4] = test system: Hypertensive rat model preparation; experiment: Effect on blood pressure, heart rate and adrenaline vasopressor response, anaesthetized hypertensive rat model; format: in vivo
Experimental: 2. Effect on blood pressure, heart rate and adrenaline vasopressor response of anaesthetized (pentobarbitone sodium 40 & 60 mg/kg i.p. in cat and rat respectively) normotensive & hypertensive rat & cat model preparations. […]

[5] = test system: Normotensive rat model preparation; experiment: Effect on blood pressure, heart rate and adrenaline vasopressor response, anaesthetized normotensive rat; format: in vivo
Experimental: as §1

[6] = test system: Spinal transected cat; experiment: Site of action: spinal transected cat, blood pressure; format: in vivo; details: dose 2-10 umol/kg i.d.
[7] = Site of action: ICV administration, blood pressure; format: in vivo; details: dose 0.34-1.36 (column head: umol/kg i.d.)
[8] = test system: Rat hind limb perfusion; experiment: Site of action: rat hind limb perfusion, flow; format: in vivo
[9] = test system: Isolated aortic strip; experiment: Isolated aortic strip, endothelin induced contraction
[10] = test system: Isolated Guinea pig ileum preparation; experiment: Isolated guinea pig ileum, antihistaminic activity; details: 0.5-5.0 ug/ml
[11] = test system: Langendorffs perfused rat heart preparation; experiment: Langendorff perfused rat heart, chronotropic effect
[12] = test system: histamine induced bronchoconstriction; experiment: Konzett and Rossler preparation, histamine induced bronchoconstriction; format: in vivo
[13] = test system: Rat aortic ring preparation; experiment: Rat aortic ring preparation, NE induced contraction
[14] = test system: cat; experiment: Drug antagonism studies of the antihypertensive effect in cat; format: in vivo; details: 2 uMol dose i.v.
[15] = test system: cat; experiment: Comparative antihypertensive effect with clinically used antihypertensive drugs in cat; format: in vivo; details: 2 uMol/kg i.v.
Source text: (4) Comparative antihypertensive effect with clinically used antihypertensive drugs at 2 uMol/kg i.v. dose in cat

[16] = test system: Langendorff perfused rat heart preparation; experiment: Cardioprotective activity, Langendorff perfused rat heart, prolonged ischemic insult, compound given at reperfusion
Experimental: Further, in Langendorff perfused rat heart preparation subjected to even upto 90 min. global ischemia, the compound at 0.001 ug/ml conc. given at the time of reperfusion revived normal rhythmic contraction started within 2 min. (Table 1) and incidence of reperfusion induced arrhythmia were abolished. Table 1: Compound administered at the time of reperfusion at the dose of 0.001 ug/ml on prolong period (90 min.) of ischemic insult.
(§3) The rats were killed by decapitation, heart were rapidly excised and placed in ice-cold HEPES tyrode buffer. Then isolated hearts were perfused retrogradely through coronary arteries using the Langendorff technique. The perfusion buffer consisted (in mM) NaCl 137, KCl 5.4, CaCl2 1.8, MgCl2 1.0, glucose 11.2 and HEPES 3.0. The buffer (pH 7.4) was continuously gassed with oxygen and maintained at 37°C. Coronary flow rate was maintained at 10 ml/min. The heart contracted spontaneously.
(§4) The perfused heart was allowed to equilibrate for 30 min. before initiation of any insult protocol. The text compounds were given at the time of reperfusion. Some of the compounds were dissolved in ethanol. Final concentration of ethanol in the perfusion buffer was 0.0001% and had no effect of its own on the parameter used. • (a) For brief period of ischemic insult (Hideo et al.). Pathophysiology and pathogenesis of stunned myocardium. J. Clin. Invest., 79, 950-961, 1987). Ischemia was initiated by stopping the flow for 16 min. followed by 30 min. reperfusion period. The durations were decided on the initial pilot experiments leading to 50% recovery of function. • (b) For prolong period of ischemic insult (Becker, L.C. & Ambrosio, G. Myocardial consequences of reperfusion. Prog. Cardiovas. Dis., 30, 23-44, 1987). Ischemia was initiated by stopping the flow for […]. followed by 30 min. reperfusion.

[17] = test system: cat; experiment: Effect on blood pressure and adrenaline vasopressor response in anaesthetized cat, i.v. (Table 2); format: in vivo
Experimental: as §2

[18] = test system: Langendorff perfused rat heart; experiment: Antiischemic activity, Langendorff perfused rat heart, brief (16 min.) ischemic insult, compound given at reperfusion (Table 3); details: 0.001 ug/ml at reperfusion
Experimental: Table 3: Compound administered at the time of reperfusion at a dose of 0.001 ug/ml on brief period (16 min.) of ischemic insult.
as §3, §4

[19] = dose 20 uMol/kg i.d., in beats/min (unit assumed)
[20] = up to 90 min. global ischemia, 0.001 ug/ml given at the time of reperfusion

For `O=C1CCCN1CCCN1CCN(c2ccc(F)cc2)CC1` [C6H4-4-F, n=1, 1-[4-(4-fluorophenyl)piperazin-1-yl]-3-[2-oxopyrrolidin-1-yl]propane], the LD50 ([1]; ip) was 147 mg/kg, the LD50 ([1]; po) was 562 mg/kg and the “Adrenaline vasopressure response % inhibition” value ([2]; dose 10 uMol/kg i.d.) was 49%. For the same compound, the B.P. fall ([2]; dose 10 uMol/kg i.d.) was 16%, the Dur. ([2]; dose 10 uMol/kg i.d.) was 110 min and the “Heart rate Pre treatment” value ([2]; dose 10 uMol/kg i.d.) was 195/195. The “Heart rate post treatment” value ([2]; dose 10 uMol/kg i.d.) was 195/195, the B.P. fall ([2]; dose 20 uMol/kg i.d.) was 22% and the Dur. ([2]; dose 20 uMol/kg i.d.) was >156.75 min. The “Heart rate Pre treatment” value [2, 19] was 177, the “Heart rate post treatment” value [2, 19] was 185 and the “Adrenaline vasopressure response % inhibition” value ([3]; dose 10 uMol/kg i.d.) was 26%. For the same compound, the B.P. fall ([3]; dose 10 uMol/kg i.d.) was 22%, the Dur. ([3]; dose 10 uMol/kg i.d.) was 85 min and the Heart rate Pre treatment ([3]; dose 10 uMol/kg i.d.) was 200 beats/min. For the same compound, the Heart rate post treatment ([3]; dose 10 uMol/kg i.d.) was 170 beats/min, the “Adrenaline vasopressure response % inhibition” value ([3]; dose 20 uMol/kg i.d.) was 34.75% and the B.P. fall ([3]; dose 20 uMol/kg i.d.) was 21%. For the same compound, the Dur. ([3]; dose 20 uMol/kg i.d.) was >102.5 min, the Heart rate Pre treatment ([3]; dose 20 uMol/kg i.d.) was 185 beats/min and the Heart rate post treatment ([3]; dose 20 uMol/kg i.d.) was 165 beats/min. For the same compound, the “Adrenaline vasopressure response % inhibition” value ([4]; dose 5 uMol/kg i.d.) was 33%, the B.P. fall ([4]; dose 5 uMol/kg i.d.) was 27% and the Dur. ([4]; dose 5 uMol/kg i.d.) was 51 min. The Heart rate Pre treatment ([4]; dose 5 uMol/kg i.d.) was 346 beats/min, the Heart rate post treatment ([4]; dose 5 uMol/kg i.d.) was 320 beats/min and the “Adrenaline vasopressure response % inhibition” value ([4]; dose 10 uMol/kg i.d.) was 23%. The B.P. fall ([4]; dose 10 uMol/kg i.d.) was 22%, the Dur. ([4]; dose 10 uMol/kg i.d.) was 76 min and the Heart rate Pre treatment ([4]; dose 10 uMol/kg i.d.) was 356 beats/min. The Heart rate post treatment ([4]; dose 10 uMol/kg i.d.) was 340 beats/min, the “Adrenaline vasopressure response % inhibition” value ([4]; dose 20 uMol/kg i.d.) was 54% and the B.P. fall ([4]; dose 20 uMol/kg i.d.) was 29%. It also gave a Dur. ([4]; dose 20 uMol/kg i.d.) of 100 min, a Heart rate Pre treatment ([4]; dose 20 uMol/kg i.d.) of 310 beats/min and a Heart rate post treatment ([4]; dose 20 uMol/kg i.d.) of 275 beats/min. For the same compound, the B.P. fall ([5]; dose 2 uMol/kg i.v.) was 25%, the Dur. ([5]; dose 2 uMol/kg i.v.) was 11 min and the Heart rate Pre treatment ([5]; dose 2 uMol/kg i.v.) was 350 beats/min. For the same compound, the Heart rate post treatment ([5]; dose 2 uMol/kg i.v.) was 370 beats/min, the B.P. fall ([5]; dose 10 uMol/kg i.v.) was 10% and the Dur. ([5]; dose 10 uMol/kg i.v.) was 3 min. The Heart rate Pre treatment ([5]; dose 10 uMol/kg i.v.) was 315 beats/min, the Heart rate post treatment ([5]; dose 10 uMol/kg i.v.) was 360 beats/min and the B.P. fall ([5]; dose 20 uMol/kg i.v.) was 21%. The Dur. ([5]; dose 20 uMol/kg i.v.) was 27.5 min, the Heart rate Pre treatment ([5]; dose 20 uMol/kg i.v.) was 315 beats/min and the Heart rate post treatment ([5]; dose 20 uMol/kg i.v.) was 285 beats/min. For the same compound, the B.P. fall [6] was 14-18%, the Dur. [6] was 15 to 30 min and the B.P. fall [7] was 8-10%. For the same compound, the Dur. [7] was 10 to 15 min, the “Percent change in flow” value ([8]; total dose 10 ug) was “no effect” and the “Percent change in flow” value ([8]; total dose 25 ug) was “+35 (Vasodilatation) Percent”. For the same compound, the “Percent change in flow” value ([8]; total dose 50 ug) was “+50 (Vasodilatation) Percent”, the Endothelin induced contraction [9] was “inhibited significantly” and the “Response to endothelin after washing the preparation” value ([9]; after washing) was “relaxation rather than contraction”. The antihistaminic activity [10] was “significant antihistaminic activity”, the “duration of negative chronotropic effect” value ([11]; 1 ug) was 10 min and the negative chronotropic effect ([11]; 1 ug) was 30%. The “duration of negative chronotropic effect” value ([11]; 3 ug) was 14 min, the negative chronotropic effect ([11]; 3 ug) was 26% and the “duration of negative chronotropic effect” value ([11]; 5 ug) was 5 min. The negative chronotropic effect ([11]; 5 ug) was 5%, the “antihistaminic activity against histamine induced bronchoconstriction” value [12] was “some antihistaminic activity” and the NE induced contraction [13] was “inhibited”. The “reduction of the fall in blood pressure” value ([14]; glibenclamide pretreatment) was “only partially reduced”, the “alteration of antihypertensive effect” value ([14]; pretreatment with atropine sulphate, mepyramine maleate, propranolol, or yohimbine) was “failed to alter” and the “reduction of antihypertensive effect” value ([14]; pretreatment with captopril or Dup-753) was 33%. For the same compound, the “reduction of antihypertensive effect” value ([14]; pretreatment with prazosin) was 90%, the “reduction of antihypertensive effect” value ([14]; pretreatment with verapamil) was 50% and the B.P. fall [15] was 22%. For the same compound, the Dur. [15] was 25 min, the Onset ([16]; 0.001 ug/ml at reperfusion, 90 min. ischemic insult) was 4 min and the “incidence of reperfusion induced arrhythmia” value [16, 20] was “abolished”. The “time until normal rhythmic contraction started” value [16, 20] was ≤ 2 min, the inhibition at 2 µmol/kg ([17]; Felis catus, iv, dose 2.0 umol/kg i.v., read-out: Adrenaline vasopressure response % inhibition) was 9% and the inhibition in vivo at 2 µmol/kg ([17]; Felis catus, iv, dose 2.0 umol/kg i.v., read-out: B.P. fall %) was 25%. For the same compound, the inhibition at 10 µmol/kg ([17]; Felis catus, iv, dose 10.0 umol/kg i.v., read-out: Adrenaline vasopressure response % inhibition) was > 100%, the inhibition in vivo at 10 µmol/kg ([17]; Felis catus, iv, dose 10.0 umol/kg i.v., read-out: B.P. fall %) was 31% and the Dur. ([17]; dose 2.0 umol/kg i.v.) was 71 min. The Dur. ([17]; dose 10.0 umol/kg i.v.) was >112 min and the Onset [18] was 1.5 min.
